Common to all, as to format: cell-based
Experiment [1] relates to PC-3 cells. Briefly: Cell proliferation assay (CellTiter Glo), PC-3. The settings on record: Homo sapiens, PC-3, 168 h, read-out: PC-3 IC50. Here is the method:
(§1) IC50 values were calculated and graphed using the model “log(inhibitor) vs. response—Variable slope” included in GraphPad Prism 5 (San Diego, CA). The Ki values were further calculated using the equation below where [L] was the radioligand concentration (1 nM) using in this study. Kd value was 0.332 nM. Ki=IC50/(1+[L]/Kd) c. AR transactivation: Human AR cloned into a CMV vector backbone was used for the transactivation study. HEK-293 cells were plated at 80,000 cells per well of a 24 well plate in DME+5% csFBS. Twenty four hours later, the cells were transfected using Lipofectamine (Invitrogen, Carlsbad, CA) with 0.25 μg GRE-LUC, 0.01 μg CMV-LUC (renilla luciferase) and 25 ng of the AR in OPTIMEM medium. The cells were treated 24 hrs after transfection with various ligands (10^−12 to 10^−5 M final concentrations) and luciferase assay were performed 48 hours after transfection. Firefly values were normalized to renilla luciferase values and the values were represented as relative light units (RLU). Agonist and antagonist assays for the test article were performed in the absence and in the combination with 0.1 nM R1881, respectively. Data were represented as EC50 (for agonists) and IC50 (for antagonists) obtained from four parameter logistics curve. Cell culture and proliferation assays: LNCaP, PC-3, 22RV1, MCF-7, HT-29, and HCT-116 cells were procured from American Type Culture Collection (ATCC). Cells were cultured in medium recommended by the ATCC. Cell culture medium was obtained from Fisher scientific (Waltham, MA) and serum was obtained from Hyclone (San Angelo, TX).
(§2) Cells were plated at varying density in the respective growth medium in 96 well plates. 24 hr later, cells were treated, in triplicate or quadruplicate, with test articles prepared in a range of concentrations by series dilution of DMSO stock solutions in growth medium and incubated for three to seven days. The number of viable 22RV1 and HT-29 cells was measured using CellTiter Glo assay (CTG, Promega, Madison, WI) after three days of treatment. The other types of cancer cells were re-treated at three or four days and the number of viable cells was measured using CTG assay after a total treatment time of six or seven days. Cell viability data were plotted using GraphPad Prism (GraphPad Software, Inc., San Diego, CA). In addition, a nonlinear regression model with a sigmoidal dose response and variable slope within GraphPad Prism was used to calculate the IC50 value of individual test articles. Additional cell proliferation assays: Other cancer cell lines are tested in a cell proliferation assay. For example, SK-OV-3 or OVCAR3 ovarian cancer cells are tested. […] The number of viable cells is measured using CellTiter Glo assay (CTG, Promega, Madison, WI) or similar. […]
Background: Cellular ATP, detected with luciferase, serves as a proxy for viable cell number.

The test system of experiment [2] is HCT-116 cells. Briefly: Cell proliferation assay (CellTiter Glo), HCT-116. The settings on record: Homo sapiens, HCT-116, 168 h, read-out: HCT-116 IC50. How it is done:
as §1, §2

Experiment [3] concerns LNCaP cells. Briefly: Cell proliferation assay (CellTiter Glo), LNCaP. The settings on record: Homo sapiens, 168 h, read-out: LNCaP IC50. Here is the method:
as §1
Cells were plated at varying density in the respective growth medium in 96 well plates. 24 hr later, cells were treated, in triplicate or quadruplicate, with test articles prepared in a range of concentrations by series dilution of DMSO stock solutions in growth medium and incubated for three to seven days. The number of viable 22RV1 and HT-29 cells was measured using CellTiter Glo assay (CTG, Promega, Madison, WI) after three days of treatment. The other types of cancer cells were re-treated at three or four days and the number of viable cells was measured using CTG assay after a total treatment time of six or seven days. Cell viability data were plotted using GraphPad Prism (GraphPad Software, Inc., San Diego, CA). In addition, a nonlinear regression model with a sigmoidal dose response and variable slope within GraphPad Prism was used to calculate the IC50 value of individual test articles. Additional cell proliferation assays: Other cancer cell lines are tested in a cell proliferation assay. For example, SK-OV-3 or OVCAR3 ovarian cancer cells are tested. Cells are cultured in medium recommended by the supplier (e.g., ATCC or JCRB Cell Bank), at 37° C. in a 5% CO2 environment. For the proliferation assay, cells are plated in the growth medium in 96 well plates. Seeding density is adjusted according to the cell type. 24 hr later, cells are treated, in triplicate or quadruplicate, with test articles prepared in a range of concentrations by series dilution of DMSO stock solutions in growth medium, and typically incubated for three to seven days, with test article-containing medium replaced after three or four days. The number of viable cells is measured using CellTiter Glo assay (CTG, Promega, Madison, WI) or similar. Cell viability data are plotted using GraphPad Prism (GraphPad Software, Inc., San Diego, CA). […]

The structures appear in SMILES notation.

Take `CC1(C)C(=O)N(c2ccc(C#N)c(C(F)(F)F)c2)C(=S)N1c1ccc(C(=O)NCCCCCC(=O)N2CCN(C(=O)c3cc(Cc4n[nH]c(=O)c5ccccc45)ccc3F)CC2)c(F)c1` [Compound 1.1, 4-(3-(4-cyano-3-(trifluoromethyl)phenyl)-5,5-dimethyl-4-oxo-2-thioxoimidazolidin-1-yl)-2-fluoro-N-(6-(4-(2-fluoro-5-((4-oxo-3,4-dihydrophthalazin-1-yl)methyl)benzoyl)piperazin-1-yl)-6-oxohexyl)benzamide]: the IC50 is 50 nM in experiment [1], 310 nM in experiment [2] and 590 nM in experiment [3].
In the same order, the values of `C[C@]12CCC(=O)C[C@@H]1CC[C@@H]1[C@@H]2CC[C@]2(C)[C@@H](OCCCCCC(=O)N3CCN(C(=O)c4cc(Cc5n[nH]c(=O)c6ccccc56)ccc4F)CC3)CC[C@@H]12` [Compound 1.2, 4-(3-(4-(6-(((5S,8R,9S,10S,13S,14S,17S)-10,13-dimethyl-3-oxohexadecahydro-1H-cyclopenta[a]phenanthren-17-yl)oxy)hexanoyl)piperazine-1-carbonyl)-4-fluorobenzyl)phthalazin-1(2H)-one] are 240 nM, 110 nM and 790 nM.

The term IC50 denotes the concentration needed to halve the response being measured.

Source of the values: patent publication US12398121B2 (Nuvation Bio Inc., priority 2018, dated 2025).
